This is an account of results in US7893299B2, “Interleukin-1 and tumor necrosis factor-αmodulators; syntheses of such modulators and methods of using such modulators” (Nereus Pharmaceuticals, Inc., priority 2005, dated 2011).

As usually defined, the EC50 is the concentration giving half of the maximal effect.

The test system of data set [1] is Panc1 and HS766T. Put plainly: TRAIL resistance of human pancreatic cancer cell lines. The data set is classed as cell-based. An excerpt: Novel diterpene inhibitors of NFκB derived from acanthoic acid (NPI-1342 (Formula IIB-a1) and NPI-1387; compound 24 under scheme 4 above) show measurable effects in human pancreatic cancer cell lines in vitro. Seven of the nine cell lines were moderately sensitive to apoptosis induced by death receptor ligand Tumor Necrosis Factor (TNF) related apoptosis-inducing ligand (TRAIL). […] Specific silencing of NFkB/p65 expression mimicked these effects. Furthermore, combination treatment of Salinosporamide A and either NPI-1342 or NPI-1387 led to induction of apoptosis as measured by PI FACS analysis. Specifically, levels of DNA fragmentation increased from 4% to 50% in HS766T cells and from 4% to 52% in Panc1 cells. The inhibitory effects of NPI-1342, NPI-1387 on NFκB were evaluated by Electromobility Shift Assays and confirmed by confocal microscopy.

The subject of data set [2] is TNF-α induced nuclear factor-κB (NF-κB) activation. Description: HEK293 NF-κB/Luciferase reporter cell line. Format: cell-based. A general note: Reporter assays use an easily measured gene product as a stand-in for the process of interest.
Data set [3] has as its system TNF-α production in HPBMC. Description: TNF-α levels in LPS-stimulated Human Peripheral Blood Mononuclear cells (ELISA). Format: cell-based. As to conditions: 5 hr drug exposure, read-out: EC50 Inhibition of TNF-α production. The protocol: (§1) Eighty μl of 3.1×10^5/ml Human Peripheral Blood Mononuclear cells (HPBMC) were seeded in Costar 3904 96-well plate in LGM-3 medium and cultured for 12 hr at 37° C., 5% CO2 and 95% humidified air. 10 μl of 8-point half-log serial dilutions of LT-1-85, CC-3-19, CC-3-13P, formula (IIB-A1) and CC-3-22 prepared in LGM-3 medium was added to the cells and incubated for 1 hr. Subsequently, 10 μl of 500 ng/ml lipopolysaccharide (LPS) diluted in LGM-3 medium from 1 mg/ml stock solution was added to the cells and incubation proceeded for another 4 hr at 37° C., 5% CO2 and 95% humidified air. SB203580, a known p38 MAP kinase inhibitor and DMSO were used as positive and negative controls, respectively. After 4 hr stimulation with LPS, the level of TNF-α from each sample was analyzed by using the human TNF-α cytoset ELISA kit. EC50 values (the drug concentration at which 50% of the maximal observed TNF-α production is inhibited) were determined using a standard sigmoidal dose response curve fitting algorithm (Prism 2.0, GraphPad Software Inc). A duplicate set of cell plates were assayed for cell viability using the Resazurin dye after the cells were incubated with test compounds for 24 hr. The fluorescence of the reduction product of Resazurin was measured using a Fusion microplate fluorometer (Packard Bioscience) with λex=535 nm and λem=590 nm filters. EC50 values (the drug concentration at which 50% of the maximal observed growth inhibition is established) were determined using a standard sigmoidal dose response curve fitting algorithm (Prism 2.0, GraphPad Software Inc).
(In an ELISA, binding on a coated surface is turned into a signal by an enzyme label.)

Data set [4] concerns HPBMC. Description: HPBMC cell viability, Resazurin. As to conditions: for EC50: HPBMC, 24 hr drug exposure, read-out: EC50 Inhibition of cell growth. Format: cell-based, Human. Here is the method:
as §1
In general terms: The colour change of resazurin is a common sign of viable cells or microbes.

In data set [5] the test system is IL-10 production. Put plainly: LPS-stimulated IL-10 levels in RPMI 8226 cells (ELISA). The data set is classed as cell-based, human. Particulars: 20 μM to 0.16 μM. Here is the method: Ninety μl of 2.8×10^5/ml and 0.5 ml of 5×10^5/ml RMPI 8226 cells (#CCL-155C, American Type Culture Collection) were seeded in 96-well and 6-well plate in LGM-3 medium, respectively. Cells were cultured overnight at 37° C., 5% CO2 and 95% humidified air. 8-point serial dilution of TTL3 or formula (IIB-A1) was added to cells for 1 hr at the final concentration ranging from 20 μM to 0.16 μM. DMSO was used as control. After 1 hr, 50 ng/ml of LPS diluted in LGM-3 medium from 1 mg/ml stock solution was added to stimulate the cells for additional 10 hr. Supernatants were collected and IL-8 and IL-10 levels were analyzed by using the human IL-8 and IL-10 cytoset ELISA kits.

Data set [6] addresses NIK (Homo sapiens, UniProt Q99558). The data set is classed as biochemical. Particulars: for inhibition of the NIK kinase activity: transfected cells stimulated with LPS/IFNγ in the presence of compound. The protocol: The tubes were gently vortexed for 15 s and centrifuged at 8000×g for 15 min. The supernatant (1 ml) was pre-cleared, and NIK was immunoprecipitated with 1 μg of anti-myc Ab. After extensive washing of the immunoprecipitate with buffer A, the pellet was resuspended in kinase buffer (modified buffer A containing 0.1 mM EDTA, 5 mM MgCl2 and 10 nM okadaic acid). Kinase activity was assayed in 100 μl of kinase buffer containing 100 ng of immunoprecipitate, 50 μM [γ-^32P]ATP (0.5 μCi) and 100 ng of MBP as substrate.

Data set [7] has as its system THP-1 cells. Description: resazurin viability assay in THP-1 cells. Format: cell-based, human. Particulars: * mild, ** marked reduction in viability, in % (unit assumed). The protocol:
The ability to inhibit TNF-α production was analyzed in THP-1 cells, a human acute monocytic leukemia cell line that is widely used to assess monocyte functions. In order to induce maturation, THP-1 cells were plated at 1×10^6 cells/ml and pretreated with 5 nM PMA for two days. Differentiated THP-1 cells were pretreated with various concentrations of TTL3 or its analogs for 1 hour, followed by a 4 hour incubation with 1 μg of LPS (Sigma, St. Louse, Mo.). The p38 inhibitor (SB 203580; Sigma, St. Louis, Mo.) was used as a positive control. Supernatants were collected and stored at −80° C. until assayed for TNF-α activity. A resazurin assay was performed for each analog to evaluate the effects on cell metabolism and viability.
A preparation of the dye resazurin, commercially-available as alamarBlue™ (Biosource International Inc., 820 Flynn Road, Camarillo, Calif.), was used for the cytotoxicity assays described herein. The assays and experiments described herein were conducted in substantially the same manner as described in the scientific literature, for example, in Magnani, E. and Bettini, E., “Resazurin detection of energy metabolism changes in serum-starved PC12 cells and of neuroprotective agent effect,” Brain Res Protoc., 2000 July; 5(3):266-72 and in Nociari M. M., Shalev A., Benias P., and Russo C. J, “A novel one-step, highly sensitive fluorometric assay to evaluate cell-mediated cytotoxicity,” Immunol. Methods 213, 157-167 (1998), see also U.S. Pat. No. 5,501,959, entitled “Antibiotic and Cytotoxic Drug Susceptibility Assays using Resazurin and Poising Agents,” the entire specification of which is incorporated herein by reference.

The structures appear in SMILES notation. Like-named read-outs stand apart in the source and are kept apart here.

Sequence of NIK (Q99558 whole entry): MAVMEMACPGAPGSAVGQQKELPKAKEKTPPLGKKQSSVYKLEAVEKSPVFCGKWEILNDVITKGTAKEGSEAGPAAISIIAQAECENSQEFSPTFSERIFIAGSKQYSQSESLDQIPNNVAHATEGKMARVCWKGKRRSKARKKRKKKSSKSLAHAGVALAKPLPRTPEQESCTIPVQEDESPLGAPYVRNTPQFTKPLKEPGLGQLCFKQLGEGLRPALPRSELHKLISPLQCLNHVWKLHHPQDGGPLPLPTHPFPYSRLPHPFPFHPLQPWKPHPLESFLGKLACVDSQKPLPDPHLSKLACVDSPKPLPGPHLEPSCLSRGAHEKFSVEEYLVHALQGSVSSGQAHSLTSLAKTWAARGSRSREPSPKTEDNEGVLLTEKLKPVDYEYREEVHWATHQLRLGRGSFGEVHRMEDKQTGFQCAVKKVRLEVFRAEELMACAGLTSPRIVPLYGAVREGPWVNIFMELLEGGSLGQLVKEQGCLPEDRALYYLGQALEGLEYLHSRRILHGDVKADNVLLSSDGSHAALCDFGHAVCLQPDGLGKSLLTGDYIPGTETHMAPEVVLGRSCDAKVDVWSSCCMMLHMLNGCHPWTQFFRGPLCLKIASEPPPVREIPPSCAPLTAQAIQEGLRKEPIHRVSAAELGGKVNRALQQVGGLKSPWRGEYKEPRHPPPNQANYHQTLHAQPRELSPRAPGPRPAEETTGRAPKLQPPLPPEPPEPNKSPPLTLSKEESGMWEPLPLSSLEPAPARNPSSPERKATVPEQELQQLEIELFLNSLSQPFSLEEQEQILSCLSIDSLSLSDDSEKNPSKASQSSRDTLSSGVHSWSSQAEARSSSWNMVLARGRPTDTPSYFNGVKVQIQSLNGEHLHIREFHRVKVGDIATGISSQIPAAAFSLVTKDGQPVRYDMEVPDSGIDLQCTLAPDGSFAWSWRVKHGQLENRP

Regarding `C=CC(=O)C1(C)CCCC2(C)C3=CCC(C)(C=C)C[C@@H]3CC[C@H]12` (stereo in doubt) [NPI-1387, 1-[(1S,4aS,7R)-1,4a,7-Trimethyl-7-vinyl-1,2,3,4,4a,6,7,8,8a,9,10,10a-dodecahydro-1-phenanthrenyl]-2-propen-1-one], the TRAIL resistance result in data set [1] was “reversed TRAIL resistance”. Moreover, in data set [2], the “TNF-α induced NF-κB activation” value is reported as “reduced TNF-α induced nuclear factor-κB (NF-κB) activation”.
For the molecule `C=C[C@@]1(C)CCC=C2[C@H]1CC[C@@H]1[C@](C)(C(=O)NC3CCCCC3)CCC[C@@]21C` [Formula (IIB-A1), N-Cyclohexylamide Derivative of TTL], the 50% effective concentration (EC50) in data set [3] (Homo sapiens, PBMC, 5 h) is 1.4 µM; in data set [4] (Homo sapiens, 24 h), greater than 26 µM. For the same molecule, the “cell growth of HPBMC (in words)” value in data set [4] (concentrations up to 26 μM) is “did not inhibit”. For the same molecule, the “LPS-induced IL-10 production” value in data set [5] is “reduces LPS-induced IL-8 and IL-10 production in a dose-dependent manner”; in data set [5] (listed as formula (IIB-A1)), “inhibits the LPS-induced IL-8 and IL-10 production”. Also, in data set [6], the “inhibition of the NIK kinase activity” value stood at 70%.
On to `C=C[C@@]1(C)CCC=C2[C@H]1CC[C@@H]1[C@](C)(C(=O)N3CCOCC3)CCC[C@@]21C` [LT-1-85], for which the “Effect on Cell Viability” value in data set [7] (100 ng/ml) is 100; in data set [7] (1 ug/ml) it was 100; in data set [7] (10 ug/ml) it was 80*. In addition, the EC50 turned out to be 2.3 µM in data set [3]; 1.9 µM in data set [3] (Homo sapiens, PBMC, 5 h); 3.6 µM in data set [4]; 3.8 µM in data set [4] (Homo sapiens, 24 h).
Regarding `C=C[C@@]1(C)CCC=C2[C@H]1CC[C@@H]1[C@](C)(C(=O)OC)CCC[C@@]21C` [TTL3], the “Effect on Cell Viability” value in data set [7] (100 ng/ml), in data set [7] (1 ug/ml) and in data set [7] (10 ug/ml) was 100 throughout. In addition, the “LPS-induced IL-10 production” value in data set [5] is given as “inhibits the IL-10 production in a dose-dependent manner”. The “inhibition of the kinase activity of NIK” value in data set [6] (1 μM directly added to the in vitro NIK kinase assay) is recorded as 48%. In addition, the “inhibition of the NIK kinase activity” value in data set [6] turned out to be 70%.
